{"source": "patent US20260215425A1", "about": "“NITRIFICATION INHIBITORS” (The University of Melbourne, priority 2022, published 2026)", "key": {"[1]": {"tested_on": "N. multiformis", "assay": "standard nitrification inhibition assay (NO2- production, Griess)", "assay_type": "cell-based, Nitrosospira multiformis", "conditions": "[NH4+]=3 mM, [inhibitor]=0.3 mM (10 mol %), pH 7.5, 30° C., 60 min", "procedure": "Cells of N. multiformis and N. europaea were cultivated to the mid-exponential growth phase (OD600=0.1, [NO2^−] approximately 800 μM) and harvested by filtration onto 0.2 μm membrane filters (Mixed Cellulose Ester (MCE), Sigma Aldrich). The cells were washed with 2×100 mL of 0.1 M sodium phosphate buffer (NaPB), containing 0.2 mM MgSO4 at pH 7.5. The cells were washed from the filter paper by transferring it to a sterile 50 mL tube and resuspending in NaPB (15 mL), followed by 5 s of vortexing (Ratek, Australia) and 3 s of sonication (Vevor, Australia). […] Experiments were performed in triplicate.\nIn a deep 96-well plate (2 mL capacity), 980 μL of the bacterial inoculum (OD600=0.03) was added to the inhibitor (10 μL, 30 mmol L^−1 in Milli-Q water), the solutions were mixed thoroughly and pre-incubated in the dark for 5 minutes at 100 rpm and 30° C. (NH4)2SO4 (10 μL, 150 mM, from a prepared sterile solution containing 19.8 g L^−1 (NH4)2SO4 in Milli-Q water) was then added using a multi-channel pipette. The plate was covered with a with an O2 permeable membrane to ensure aeration (Breathe-Easy® sealing membrane, Sigma Aldrich) and incubated in a temperature-regulated rotary incubator (Ratek, Australia) in the dark for 60 minutes at 30° C. and 100 rpm. An aliquot of the reaction solution ([…]) was transferred to a 96-well spectrophotometric plate to which 50 µL of Griess reagent was added. The colour was allowed to develop for 15 minutes at room temperature, and the absorbance was measured at 540 nm. Each assay was accompanied by control treatments to determine the 0% and 100% NO2 signal. The percentage inhibition was calculated according to eqn. 1 from the NO2 production of the cells in NaPB (i) without additive (‘untreated cells’: 0% signal), (ii) with [NH4^+]=3 mM (‘uninhibited’ cells: 100% signal) and (iii) with [NH4^+]=3 mM and [inhibitor]=0.3 mM and 0.03 mM (10 mol % and 1 mol % of [NH4^+], ‘inhibited cells’). Experiments were performed in triplicate."}, "[2]": {"tested_on": "soil A", "assay": "soil incubation, NH4+ and NO3- in soil A", "conditions": "21 days", "procedure": "Soils used in these studies were air-dried, ground and sieved (2 mm) prior to use. Soil microcosm incubations were carried out in 250 mL polypropylene specimen containers (Sarstedt, Germany), containing 20 g oven dry-weight equivalent of soil. Microcosms were treated with half the volume of water required to meet the desired water-filled pore space (WFPS %) of 60% and pre-incubated at 25° C. for seven days to revive soil microbial activity. Following pre-incubation, the remaining volume to reach the WFPS % was applied as one of the treatment solutions: (1) fertiliser ((NH4)2SO4,) 100 mg kg^−1, (2) fertiliser+0.5 mol % 4-MPT, (3) fertiliser+2.5 mol % 4-MPT, (4) fertiliser+5 mol % 4-MPT or (5) fertiliser+5 mol % compound 1, with three replicates of each treatment per time interval (n=3). Throughout the incubation period soil microcosms were kept aerated by removing the lid for 10 minutes every 2-3 days to allow gas exchange, and moisture levels were replenished via addition of Milli-Q water as required. At the end of the desired incubation period (i.e., after 0, 3, 7, 14, and 21 days, respectively), soil microcosms were removed and destructively sampled by treating with 2 M aqueous potassium chloride solution (KCl, 100 mL) and shaking for 1 h. Soil-KCl solutions were filtered (Whatman No. 42), and the filtrates were stored at −20° C. until the conclusion of the experiment, when all KCl extracts were analysed for the concentration of soil mineral nitrogen from ammonium (NH4^+—N) and from nitrate (NO3^−—N; the conversion of NO2 to NO3^− in soils is very rapid) after appropriate dilutions using Segmented Flow Analysis (San++, Skalar, Breda, The Netherlands). Results are reported as the mean of three replicates, errors reported are standard errors of the mean. Errors associated with raw data were carried through calculations using standard error propagation protocols.\nTo determine the nitrification inhibitory effect of 4-MPT in vivo, soil incubations were performed by measuring concentration-time profiles for NH4^+ and NO3^− in an acidic Australian soil (soil A, pH=5.9) over 21 days. 4-MPT was tested at three different concentrations (0.5 mol %, 2.5 mol % and 5 mol % of applied fertiliser-N) and compared with the alkyl-substituted compound 1 (5 mol % of applied fertiliser-N) to confirm the requirement of the N-propargyl substitutent for inhibitory activity (FIG. 5)."}, "[3]": {"tested_on": "N. europaea", "assay": "acute toxicity test (LIVE/DEAD stain)", "assay_type": "cell-based", "conditions": "[4-MPT]=1.5 mM (50 mol % of [NH4+]), [NH4+]=3 mM, 12 h", "procedure": "Cells were harvested using the ‘standard cell harvesting protocol’. The bacteria solution was adjusted to an OD600=0.8 (100 μg/L protein). The solution was divided into 1 mL aliquots and transferred to a 24-well tissue culture plate (Greiner Cellstar®, polystyrene Tissue Culture treated). Each well contained 980 μL of bacterial solution, 10 μL of a 150 mM aqueous (NH4)2SO4 solution and 10 μL of a 150 mM inhibitor solution. […] After incubation, cells were transferred into a centrifuge tube and sedimented at 10,000 rpm for 10 minutes. The supernatant was discarded, and cells were re-suspended in 1 mL NaPB. A 5 μL aliquot was transferred into a 96-well plate and the bacterial stain (LIVE/DEAD™ BacLight™ Bacterial Viability Kit for microscopy, ThermoFisher Scientific) was added following the manufacturer's guideline. 10 μL of the solution was transferred onto a microscopic slide (Fisher Scientific, Australia, microscope slides 7.6 cm×2.5 cm (L×W), thickness 1-1.2 mm). Ten images were taken per treatment with a fluorescence microscope (Leica DM6000, Germany) using the red filter setting (excitation:\n575/30 nm (dichromatic) DC: 600; emission: 635/40 nm) and green channel using filter setting (excitation: 500/20 nm DC: 515; emission: 535/30 nm) to detect dead and live cells respectively. The percentage of live and dead cells was calculated via eqns."}, "[4]": {"tested_on": "N. europaea", "assay": "mode of inhibition, Michaelis-Menten kinetics of NO2- production", "assay_type": "cell-based", "conditions": "for Km: read-out: Km(app)", "procedure": "These studies were performed using a modified procedure of that described earlier. In FIG. 4a, the rate of NO2^− production was measured as a function of [NH4^+] to determine whether the inhibitor follows Michaelis-Menten kinetics. The [NH4^+] was 0.003 mM, 0.03 mM, 0.5 mM, 1.5 mM, 3 mM, 10 mM, 15 mM and 30 mM. [4-MPT] remained constant at 0.3 mM. The Michaelis-Menten plots show saturation kinetics, where the NO2 production became independent of [NH4^+] beyond 0.5 mmol L^−1.\nMode of inhibition studies with remaining inhibitors N001, N003, N014 and N018 were conducted as a proof of concept."}, "[5]": {"conditions": "inhibitor concentration 37.5 μM"}, "[6]": {"conditions": "inhibitor concentration 75.0 μM"}}, "note": "Like-named read-outs stand apart in the source and are kept apart here."}
{"smiles": "C#CCn1cc(C)nn1", "note": "[Compound 4-MPT, 4-Methyl-1-(prop-2-yn-1yl)-1H-1,2,3-triazole]", "values": [{"measurement": "% Inhibition NM", "setting": "[1]", "value": 75, "unit": "%"}, {"measurement": "NH4+ loss / conversion in soil", "setting": "[2]; 0.5 mol % of applied fertiliser-N", "value": "noticeably delayed NH4^+ loss within the first 15 days"}, {"measurement": "NH4+ loss / conversion in soil", "setting": "[2]; 2.5 mol % of applied fertiliser-N", "value": "quantitatively suppress NH4^+ conversion"}, {"measurement": "NH4+ loss / conversion in soil", "setting": "[2]; 5 mol % of applied fertiliser-N", "value": "quantitatively suppress NH4^+ conversion"}, {"measurement": "% Dead", "setting": "[3]", "value": "25 ± 8", "unit": "%"}, {"measurement": "% Live", "setting": "[3]", "value": "75 ± 8", "unit": "%"}, {"measurement": "mode of inhibition", "setting": "[4]; NO2- production against [NH4+]", "value": "non-competitive inhibition mode"}, {"measurement": "Vmax(app)", "setting": "[4]; [5]", "value": "52.7 ± 2.0 μmol (mg protein min)^−1"}, {"measurement": "Km", "setting": "[4]; [5]", "value": "30.2 ± 0.3", "unit": "µM"}, {"measurement": "Vmax(app)", "setting": "[4]; [6]", "value": "39.2 ± 2.0 μmol (mg protein min)^−1"}, {"measurement": "Km", "setting": "[4]; [6]", "value": "23.7 ± 4", "unit": "µM"}]}
